Earlier results on 1 compound are cited in US20070003621A1, “Dosage forms for movement disorder treatment” (Spherics, Inc., priority 2005, published 2007).

The conditions of the series: doses of 400 mg per day.

Take `C[C@@](Cc1ccc(O)c(O)c1)(NN)C(=O)O` [carbidopa]: the adverse effects entry was “fails to elicit adverse effects”.
